From patent EP1025114B1, “3'-N-MODIFIED 6-O-SUBSTITUTED ERYTHROMYCIN KETOLIDE DERIVATIVES HAVING ANTIBACTERIAL ACTIVITY” (priority 1997, dated 1999)
Converted amounts (≈) assume the structure as drawn.

Tests used:
Experiment in all cases: In vitro antibacterial activity, agar dilution MIC
Format in all cases: cell-based
[1] = system: Micrococcus luteus ATCC 9341; conditions: Micrococcus luteus ATCC 9341 (organism code OO); BHI agar, 35-37 °C, 20 to 24 hours; unit assumed
Description: (§1) Representative compounds of the present invention were assayed in vitro for antibacterial activity as follows: Twelve petri dishes containing successive aqueous dilutions of the test compound mixed with 10 mL of sterilized Brain Heart infusion (BHI) agar (Difco 0418-01-5) were prepared. Each plate was inoculated with 1:100 (or 1:10 for slow-growing strains, such as Micrococcus and Streptococcus) dilutions of up to 32 different microorganisms, using a Steers replicator block. […] In addition, a control plate, using BHI agar containing no test compound, was prepared and incubated at the beginning and end of each test.
(§2) An additional plate containing a compound having known susceptibility patterns for the organisms being tested and belonging to the same antibiotic class as the test compound was also prepared and incubated as a further control, as well as to provide test-to-test comparability.
(§3) After incubation, each plate was visually inspected. The minimum inhibitory concentration (MIC) was defined as the lowest concentration of drug yielding no growth, a slight haze, or sparsely isolated colonies on the inoculum spot as compared to the growth control.

[2] = system: Staphylococcus aureus CMX 553; conditions: Staphylococcus aureus CMX 553 (organism code FF); BHI agar, 35-37 °C, 20 to 24 hours; unit assumed
Description: as §1, §2, §3

[3] = system: Streptococcus pyogenes EES61; conditions: Streptococcus pyogenes EES61 (organism code LL); BHI agar, 35-37 °C, 20 to 24 hours; unit assumed
Description: as §1, §2, §3

[4] = system: Mycobacterium smegmatis ATCC 114; conditions: Mycobacterium smegmatis ATCC 114 (organism code UU); BHI agar, 35-37 °C, 20 to 24 hours; unit assumed
Description: as §1, §2, §3

[5] = system: Staphylococcus epidermidis 3519; conditions: Staphylococcus epidermidis 3519 (organism code HH); BHI agar, 35-37 °C, 20 to 24 hours; unit assumed
Description: as §1, §2, §3

Escherichia coli DC-2 = Escherichia coli DC-2 (organism code SS); BHI agar, 35-37 °C, 20 to 24 hours; unit assumed
Description: as §1, §2, §3

[6] = system: Streptococcus agalactiae CMX 508; conditions: Streptococcus agalactiae CMX 508 (organism code KK); BHI agar, 35-37 °C, 20 to 24 hours; unit assumed
Description: as §1, §2, §3

[7] = system: Micrococcus luteus ATCC 4698; conditions: Micrococcus luteus ATCC 4698 (organism code PP); BHI agar, 35-37 °C, 20 to 24 hours; unit assumed
Description: as §1, §2, §3

[8] = system: Nocardia Asteroides ATCC9970; conditions: Nocardia Asteroides ATCC9970 (organism code VV); BHI agar, 35-37 °C, 20 to 24 hours; unit assumed
Description: as §1, §2, §3

[9] = system: Staphylococcus aureus A5177; conditions: Staphylococcus aureus A5177 (organism code BB); BHI agar, 35-37 °C, 20 to 24 hours; unit assumed
Description: as §1, §2, §3

[10] = system: Haemophilis Influenzae DILL AMP R; conditions: Haemophilis Influenzae DILL AMP R (organism code WW); BHI agar, 35-37 °C, 20 to 24 hours; unit assumed
Description: as §1, §2, §3

Escherichia coli SS = Escherichia coli SS (organism code RR); BHI agar, 35-37 °C, 20 to 24 hours; unit assumed
Description: as §1, §2, §3

Escherichia coli JUHL = Escherichia coli JUHL (organism code QQ); BHI agar, 35-37 °C, 20 to 24 hours; unit assumed
Description: as §1, §2, §3

[11] = system: Streptococcus pyogenes 930; conditions: Streptococcus pyogenes 930 (organism code MM); BHI agar, 35-37 °C, 20 to 24 hours; unit assumed
Description: as §1, §2, §3

[12] = system: Streptococcus Pheumoniae 5649; conditions: Streptococcus Pheumoniae 5649 (organism code ZZA); BHI agar, 35-37 °C, 20 to 24 hours; unit assumed
Description: as §1, §2, §3

[13] = system: Staphylococcus aureus 1775; conditions: Staphylococcus aureus 1775 (organism code GG); BHI agar, 35-37 °C, 20 to 24 hours; unit assumed
Description: as §1, §2, §3

[14] = system: Staphylococcus aureus NCTC10649M; conditions: Staphylococcus aureus NCTC10649M (organism code EE); BHI agar, 35-37 °C, 20 to 24 hours; unit assumed
Description: as §1, §2, §3

[15] = system: Streptococcus bovis A-5169; conditions: Streptococcus bovis A-5169 (organism code JJ); BHI agar, 35-37 °C, 20 to 24 hours; unit assumed
Description: as §1, §2, §3

[16] = system: Streptococcus pyogenes PIU 2548; conditions: Streptococcus pyogenes PIU 2548 (organism code NN); BHI agar, 35-37 °C, 20 to 24 hours; unit assumed
Description: as §1, §2, §3

[17] = system: Staphylococcus aureus CMX 642A; conditions: Staphylococcus aureus CMX 642A (organism code DD); BHI agar, 35-37 °C, 20 to 24 hours; unit assumed
Description: as §1, §2, §3

Candida albicans CCH 442 = Candida albicans CCH 442 (organism code TT); BHI agar, 35-37 °C, 20 to 24 hours; unit assumed
Description: as §1, §2, §3

[18] = system: Staphylococcus aureus A-5278; conditions: Staphylococcus aureus A-5278 (organism code CC); BHI agar, 35-37 °C, 20 to 24 hours; unit assumed
Description: as §1, §2, §3

[19] = system: Streptococcus Pheumoniae ATCC6303; conditions: Streptococcus Pheumoniae ATCC6303 (organism code XX); BHI agar, 35-37 °C, 20 to 24 hours; unit assumed
Description: as §1, §2, §3

[20] = system: Streptococcus Pheumoniae GYR 1171; conditions: Streptococcus Pheumoniae GYR 1171 (organism code YY); BHI agar, 35-37 °C, 20 to 24 hours; unit assumed
Description: as §1, §2, §3

[21] = system: Enterococcus faecium ATCC 8043; conditions: Enterococcus faecium ATCC 8043 (organism code II); BHI agar, 35-37 °C, 20 to 24 hours; unit assumed
Description: as §1, §2, §3

[22] = system: Staphylococcus aureus ATCC 6538P; conditions: Staphylococcus aureus ATCC 6538P (organism code AA); BHI agar, 35-37 °C, 20 to 24 hours; unit assumed
Description: as §1, §2, §3

[23] = system: Streptococcus Pheumoniae 5979; conditions: Streptococcus Pheumoniae 5979 (organism code ZZ); BHI agar, 35-37 °C, 20 to 24 hours; unit assumed
Description: as §1, §2, §3

Compound: CC[C@H]1OC(=O)[C@H](C)[C@@H](O[C@H]2C[C@@](C)(OC)[C@@H](O)[C@H](C)O2)[C@H](C)[C@@H](O[C@@H]2O[C@H](C)C[C@H](N(C)C)[C@H]2O)[C@](C)(O)C[C@@H](C)C(=O)[C@H](C)[C@@H](O)[C@]1(C)O [Ery. A, Erythromycin A, reference compound]
- MIC [1]: 0.05 µg/mL (≈ 0.0681 µM)
- MIC [2]: 0.39 µg/mL (≈ 0.531 µM)
- MIC [3]: 0.05 µg/mL (≈ 0.0681 µM)
- MIC [4]: 3.1 µg/mL (≈ 4.22 µM)
- MIC [5]: 0.39 µg/mL (≈ 0.531 µM)
- MIC (Escherichia coli DC-2): > 100 µg/mL
- MIC [6]: 0.05 µg/mL (≈ 0.0681 µM)
- MIC [7]: 0.2 µg/mL (≈ 0.273 µM)
- MIC [8]: 0.1 µg/mL (≈ 0.136 µM)
- MIC [9]: 3.1 µg/mL (≈ 4.22 µM)
- MIC [10]: 4 µg/mL (≈ 5.45 µM)
- MIC (Escherichia coli SS): 0.78 µg/mL (≈ 1.06 µM)
- MIC (Escherichia coli JUHL): > 100 µg/mL
- MIC [11]: > 100 µg/mL
- MIC [12]: 16 µg/mL (≈ 21.8 µM)
- MIC [13]: > 100 µg/mL
- MIC [14]: 0.39 µg/mL (≈ 0.531 µM)
- MIC [15]: 0.02 µg/mL (≈ 0.0273 µM)
- MIC [16]: 6.2 µg/mL (≈ 8.45 µM)
- MIC [17]: 0.39 µg/mL (≈ 0.531 µM)
- MIC (Candida albicans CCH 442): > 100 µg/mL
- MIC [18]: > 100 µg/mL
- MIC [19]: 0.06 µg/mL (≈ 0.0818 µM)
- MIC [20]: 0.06 µg/mL (≈ 0.0818 µM)
- MIC [21]: 0.05 µg/mL (≈ 0.0681 µM)
- MIC [22]: 0.2 µg/mL (≈ 0.273 µM)

Compound: CC[C@H]1OC(=O)[C@H](C)C(=O)[C@H](C)[C@@H](O[C@@H]2O[C@H](C)C[C@H](N(C)C3CC3)[C@H]2O)[C@](C)(OCC=Cc2cnc3ccccc3c2)C[C@@H](C)C(=O)[C@H](C)[C@H]2NC(=O)O[C@@]21C [Example 13, Compound of Formula (II); R is -CH2CH=CH-(3-quinolyl), R^p is H, W is absent, R^w is H, R^1 is cyclopropyl, R^2 is CH3]
- MIC [1]: 0.39 µg/mL
- MIC [2]: 1.56 µg/mL
- MIC [23]: 16 µg/mL
- MIC [3]: 0.1 µg/mL
- MIC [4]: 3.1 µg/mL
- MIC [5]: 3.1 µg/mL
- MIC (Escherichia coli DC-2): > 100 µg/mL
- MIC [6]: 0.2 µg/mL
- MIC [7]: 0.78 µg/mL
- MIC [8]: 3.1 µg/mL
- MIC [9]: 3.1 µg/mL
- MIC (Escherichia coli SS): 3.1 µg/mL
- MIC (Escherichia coli JUHL): > 100 µg/mL
- MIC [11]: > 100 µg/mL
- MIC [12]: 0.25 µg/mL
- MIC [13]: > 100 µg/mL
- MIC [14]: 3.1 µg/mL
- MIC [15]: 0.2 µg/mL
- MIC [16]: 0.39 µg/mL
- MIC [17]: 1.56 µg/mL
- MIC (Candida albicans CCH 442): 50 µg/mL
- MIC [18]: > 100 µg/mL
- MIC [19]: 0.03 µg/mL
- MIC [20]: 0.03 µg/mL
- MIC [21]: 0.39 µg/mL
- MIC [22]: 1.56 µg/mL

Compound: C#CCN(C)[C@H]1C[C@@H](C)O[C@@H](O[C@@H]2[C@@H](C)C(=O)[C@@H](C)C(=O)O[C@H](CC)[C@@]3(C)OC(=O)N[C@@H]3[C@@H](C)C(=O)[C@H](C)C[C@@]2(C)OCC=Cc2cnc3ccccc3c2)[C@@H]1O [Example 10, Compound of Formula (II); R is -CH2CH=CH-(3-quinolyl), R^p is H, W is absent, R^w is H, R^1 is CH2-C≡CH, R^2 is CH3-]
- MIC [1]: 0.1 µg/mL
- MIC [2]: 0.2 µg/mL
- MIC [23]: 32 µg/mL
- MIC [3]: 0.01 µg/mL
- MIC [4]: 1.56 µg/mL
- MIC [5]: 0.2 µg/mL
- MIC (Escherichia coli DC-2): > 100 µg/mL
- MIC [6]: 0.01 µg/mL
- MIC [7]: 0.39 µg/mL
- MIC [8]: 0.2 µg/mL
- MIC [9]: 0.39 µg/mL
- MIC (Escherichia coli SS): 1.56 µg/mL
- MIC (Escherichia coli JUHL): > 100 µg/mL
- MIC [11]: 6.2 µg/mL
- MIC [12]: 0.25 µg/mL
- MIC [13]: > 100 µg/mL
- MIC [14]: 0.1 µg/mL
- MIC [15]: 0.02 µg/mL
- MIC [16]: 0.39 µg/mL
- MIC [17]: 0.2 µg/mL
- MIC (Candida albicans CCH 442): > 100 µg/mL
- MIC [18]: > 100 µg/mL
- MIC [19]: 0.03 µg/mL
- MIC [20]: 0.03 µg/mL
- MIC [21]: 0.05 µg/mL
- MIC [22]: 0.2 µg/mL

Compound: CC[C@H]1OC(=O)[C@H](C)C(=O)[C@H](C)[C@@H](O[C@@H]2O[C@H](C)C[C@H](N(C)Cc3cccnc3)[C@H]2O)[C@](C)(OCC=Cc2cnc3ccccc3c2)C[C@@H](C)C(=O)[C@H](C)[C@H]2NC(=O)O[C@@]21C [Example 21, Compound of Formula (II); R is -CH2CH=CH-(3-quinolyl), R^p is H, W is absent, R^w is H, R^1 is CH2-(3-pyridyl), R^2 is CH3]
- MIC [10]: 4 µg/mL

Compound: CC[C@H]1OC(=O)[C@H](C)C(=O)[C@H](C)[C@@H](O[C@@H]2O[C@H](C)C[C@H](N(C)Cc3cccc(O)c3)[C@H]2O)[C@](C)(OCC=Cc2cnc3ccccc3c2)C[C@@H](C)C(=O)[C@H](C)[C@H]2NC(=O)O[C@@]21C [Example 22, Compound of Formula (II); R is -CH2CH=CH-(3-quinolyl), R^p is H, W is absent, R^w is H, R^1 is CH2-(3-hydroxyphenyl), R^2 is CH3]
- MIC [1]: 0.1 µg/mL
- MIC [2]: 0.39 µg/mL
- MIC [3]: 0.1 µg/mL
- MIC [4]: 0.78 µg/mL
- MIC [5]: 0.39 µg/mL
- MIC (Escherichia coli DC-2): > 100 µg/mL
- MIC [6]: 0.1 µg/mL
- MIC [7]: 0.1 µg/mL
- MIC [8]: 0.2 µg/mL
- MIC [9]: 0.39 µg/mL
- MIC [10]: 4 µg/mL
- MIC (Escherichia coli SS): 0.39 µg/mL
- MIC (Escherichia coli JUHL): > 100 µg/mL
- MIC [11]: 3.1 µg/mL
- MIC [12]: 0.25 µg/mL
- MIC [13]: > 100 µg/mL
- MIC [14]: 0.39 µg/mL
- MIC [15]: 0.1 µg/mL
- MIC [16]: 0.1 µg/mL
- MIC [17]: 0.39 µg/mL
- MIC (Candida albicans CCH 442): > 100 µg/mL
- MIC [18]: > 100 µg/mL
- MIC [19]: 0.03 µg/mL
- MIC [20]: 0.03 µg/mL
- MIC [21]: 0.1 µg/mL
- MIC [22]: 0.2 µg/mL
